# Test results published in ChEMBL document CHEMBL5528061, “Development of Potent MALT1 Inhibitors Featuring a Novel "2-Thioxo-2,3-dihydrothiazolo[4,5-d]pyrimidin-7(6H)-one" Scaffold for the Treatment of B Cell Lymphoma” (J Med Chem, 2024).
# Calls of active or inactive are those of the source. No cut-off for these calls is given here.
# Key:
# HBL1 = experiment: Antitumor activity against human HBL1 cells xenografted in NCG mouse assessed as tumor growth suppression at 25 mg/kg/day, ip consecutively for 12 days; assay type: functional, organism-based; details: time 12.0 day
# [1] = biological target: Vascular endothelial growth factor receptor 2 (Homo sapiens) (UniProt P35968); experiment: Inhibition of VEGFR2 (unknown origin) at 10 uM relative to control
# [2] = biological target: Insulin receptor (Homo sapiens) (UniProt P06213); experiment: Inhibition of IR (unknown origin) at 10 uM relative to control
# Insulin receptor (Homo sapiens), sequence (P06213 28-758 limits assumed): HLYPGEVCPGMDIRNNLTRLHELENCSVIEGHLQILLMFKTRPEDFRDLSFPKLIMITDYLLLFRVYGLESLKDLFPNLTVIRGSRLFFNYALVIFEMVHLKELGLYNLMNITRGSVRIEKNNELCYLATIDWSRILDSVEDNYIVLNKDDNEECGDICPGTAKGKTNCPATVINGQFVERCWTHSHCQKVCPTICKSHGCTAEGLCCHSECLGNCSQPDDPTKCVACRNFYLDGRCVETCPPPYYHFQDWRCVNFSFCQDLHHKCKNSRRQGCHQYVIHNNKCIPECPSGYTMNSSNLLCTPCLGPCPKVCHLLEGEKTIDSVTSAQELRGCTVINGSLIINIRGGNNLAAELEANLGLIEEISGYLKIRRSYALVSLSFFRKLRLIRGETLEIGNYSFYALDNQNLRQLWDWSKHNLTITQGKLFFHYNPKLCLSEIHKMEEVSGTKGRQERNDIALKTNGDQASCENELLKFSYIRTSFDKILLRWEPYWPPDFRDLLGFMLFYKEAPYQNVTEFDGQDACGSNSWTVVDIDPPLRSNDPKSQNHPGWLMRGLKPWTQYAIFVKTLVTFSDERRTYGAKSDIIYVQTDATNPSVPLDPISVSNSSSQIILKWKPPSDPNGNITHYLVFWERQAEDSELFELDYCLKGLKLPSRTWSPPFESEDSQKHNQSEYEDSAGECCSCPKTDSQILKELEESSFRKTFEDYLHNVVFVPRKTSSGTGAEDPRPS
# Insulin receptor (Homo sapiens), sequence (P06213 763-1382 limits assumed): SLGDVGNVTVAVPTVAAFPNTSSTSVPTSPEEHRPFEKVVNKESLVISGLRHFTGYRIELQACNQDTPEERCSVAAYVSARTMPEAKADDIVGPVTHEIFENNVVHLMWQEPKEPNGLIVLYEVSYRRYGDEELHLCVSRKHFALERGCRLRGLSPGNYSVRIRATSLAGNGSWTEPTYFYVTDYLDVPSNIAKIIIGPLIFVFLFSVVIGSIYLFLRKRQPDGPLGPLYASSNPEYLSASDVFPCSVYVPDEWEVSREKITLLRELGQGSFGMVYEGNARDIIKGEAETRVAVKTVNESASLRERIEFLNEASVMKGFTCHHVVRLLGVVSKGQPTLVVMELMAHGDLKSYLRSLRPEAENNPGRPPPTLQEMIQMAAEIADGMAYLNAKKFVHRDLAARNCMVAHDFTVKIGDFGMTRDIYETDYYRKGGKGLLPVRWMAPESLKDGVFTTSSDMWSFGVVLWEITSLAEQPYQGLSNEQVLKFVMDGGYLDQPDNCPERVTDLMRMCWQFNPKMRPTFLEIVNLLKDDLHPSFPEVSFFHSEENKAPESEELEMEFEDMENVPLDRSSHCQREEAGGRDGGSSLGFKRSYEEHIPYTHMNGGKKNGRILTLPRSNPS
# Caspase-7 (Homo sapiens) = Caspase-7 (Homo sapiens) (UniProt P55210); experiment: Inhibition of caspase-7 (unknown origin) using Ac-DEVD-AMC as substrate at 40 uM preincubated for 40 mins followed by substrate addition by microplate reader analysis relative to control
# Caspase-7 (Homo sapiens), sequence (P55210 24-198 limits assumed): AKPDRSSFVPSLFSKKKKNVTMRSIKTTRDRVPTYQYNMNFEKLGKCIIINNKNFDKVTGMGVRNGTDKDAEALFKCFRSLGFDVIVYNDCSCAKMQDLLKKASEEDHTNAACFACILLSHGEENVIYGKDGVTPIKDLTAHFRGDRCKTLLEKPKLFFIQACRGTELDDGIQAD
# Caspase-7 (Homo sapiens), sequence (P55210 207-303 limits assumed): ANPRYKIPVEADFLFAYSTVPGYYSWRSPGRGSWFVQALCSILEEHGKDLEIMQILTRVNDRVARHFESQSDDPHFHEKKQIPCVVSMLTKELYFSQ
# [3] = Induction of apoptosis in human HBL1 cells at 5 uM incubated for 24 hrs by Annexin V-FITC/PI staining based flow cytometry relative to control; assay type: functional
# TMD8 = experiment: Inhibition of NF-kappaB signalling pathway in human TMD8 cells assessed as decrease in total I-kappaB-alpha level upto 10 uM incubated for 12 hrs by Western blot analysis; assay type: cell-based
# [4] = biological target: Tyrosine-protein kinase ABL1 (Homo sapiens) (UniProt P00519); experiment: Inhibition of Abl (unknown origin) at 10 uM relative to control
# Tyrosine-protein kinase ABL1 (Homo sapiens), sequence (P00519 whole entry): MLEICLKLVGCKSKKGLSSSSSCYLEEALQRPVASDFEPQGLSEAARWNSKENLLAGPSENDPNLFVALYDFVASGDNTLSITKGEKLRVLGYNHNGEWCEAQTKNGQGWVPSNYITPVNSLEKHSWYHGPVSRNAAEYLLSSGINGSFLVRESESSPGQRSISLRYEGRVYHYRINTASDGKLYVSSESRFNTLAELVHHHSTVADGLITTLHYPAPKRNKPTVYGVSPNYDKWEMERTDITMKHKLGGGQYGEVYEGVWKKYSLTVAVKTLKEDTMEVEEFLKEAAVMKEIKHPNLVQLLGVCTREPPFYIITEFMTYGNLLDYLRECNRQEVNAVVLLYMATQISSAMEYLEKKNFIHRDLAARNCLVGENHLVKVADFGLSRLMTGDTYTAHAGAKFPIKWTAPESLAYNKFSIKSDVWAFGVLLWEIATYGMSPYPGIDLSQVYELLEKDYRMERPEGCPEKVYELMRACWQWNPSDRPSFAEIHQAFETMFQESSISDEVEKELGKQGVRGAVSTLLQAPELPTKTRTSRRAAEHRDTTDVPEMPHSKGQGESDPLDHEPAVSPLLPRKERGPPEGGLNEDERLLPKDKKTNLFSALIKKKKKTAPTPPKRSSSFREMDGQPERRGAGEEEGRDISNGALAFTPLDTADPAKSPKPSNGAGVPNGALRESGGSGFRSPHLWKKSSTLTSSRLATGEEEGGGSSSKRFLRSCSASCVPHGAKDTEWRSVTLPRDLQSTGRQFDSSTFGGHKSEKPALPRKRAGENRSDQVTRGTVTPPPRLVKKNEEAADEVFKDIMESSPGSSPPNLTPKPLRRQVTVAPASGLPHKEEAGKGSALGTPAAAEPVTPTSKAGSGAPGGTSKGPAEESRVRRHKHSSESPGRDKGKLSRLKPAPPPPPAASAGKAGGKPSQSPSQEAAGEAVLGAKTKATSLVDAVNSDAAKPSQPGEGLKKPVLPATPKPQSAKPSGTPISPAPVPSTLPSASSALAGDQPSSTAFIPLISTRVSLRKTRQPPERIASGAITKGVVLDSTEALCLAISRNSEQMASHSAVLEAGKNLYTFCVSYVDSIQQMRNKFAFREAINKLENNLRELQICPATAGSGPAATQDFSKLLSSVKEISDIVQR
# [5] = Half life in ICR mouse at 30 mg/kg, ip measured for 3 hrs by LC-MS/MS analysis; assay type: ADME, organism-based; details: in vivo
# [6] = Toxicity in NCG mouse xenografted with human HBL1 cells assessed as body weight loss at 25 mg/kg/day, ip consecutively for 12 days; assay type: organism-based; details: in vivo, 288 h, time 12 day
# [7] = Toxicity in NCG mouse xenografted with human TMD8 cells assessed as body weight loss at 25 mg/kg/day, ip consecutively for 14 days; assay type: organism-based; details: in vivo, 336 h, time 14 day
# [8] = biological target: Insulin-like growth factor 1 receptor (Homo sapiens) (UniProt P08069); experiment: Inhibition of IGF1R (unknown origin) at 10 uM relative to control
# Insulin-like growth factor 1 receptor (Homo sapiens), sequence (P08069 31-736 limits assumed): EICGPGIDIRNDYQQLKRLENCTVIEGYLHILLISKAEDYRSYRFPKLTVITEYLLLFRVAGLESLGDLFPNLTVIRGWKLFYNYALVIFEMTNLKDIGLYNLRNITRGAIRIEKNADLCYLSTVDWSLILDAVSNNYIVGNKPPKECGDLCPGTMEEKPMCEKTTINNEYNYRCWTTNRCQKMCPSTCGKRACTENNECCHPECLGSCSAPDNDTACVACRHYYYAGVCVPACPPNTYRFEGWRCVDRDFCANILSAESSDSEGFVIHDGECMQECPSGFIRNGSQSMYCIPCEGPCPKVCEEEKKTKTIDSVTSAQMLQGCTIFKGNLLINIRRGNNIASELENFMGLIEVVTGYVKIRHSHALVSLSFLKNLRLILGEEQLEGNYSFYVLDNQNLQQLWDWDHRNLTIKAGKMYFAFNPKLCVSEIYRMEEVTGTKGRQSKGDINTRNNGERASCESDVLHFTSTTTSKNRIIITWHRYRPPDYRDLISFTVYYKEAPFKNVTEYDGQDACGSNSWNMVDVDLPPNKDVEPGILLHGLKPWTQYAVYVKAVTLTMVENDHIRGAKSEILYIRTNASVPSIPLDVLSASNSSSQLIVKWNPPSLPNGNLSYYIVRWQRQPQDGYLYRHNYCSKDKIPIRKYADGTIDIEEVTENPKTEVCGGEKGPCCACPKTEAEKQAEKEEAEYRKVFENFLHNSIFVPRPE
# Insulin-like growth factor 1 receptor (Homo sapiens), sequence (P08069 741-1367 limits assumed): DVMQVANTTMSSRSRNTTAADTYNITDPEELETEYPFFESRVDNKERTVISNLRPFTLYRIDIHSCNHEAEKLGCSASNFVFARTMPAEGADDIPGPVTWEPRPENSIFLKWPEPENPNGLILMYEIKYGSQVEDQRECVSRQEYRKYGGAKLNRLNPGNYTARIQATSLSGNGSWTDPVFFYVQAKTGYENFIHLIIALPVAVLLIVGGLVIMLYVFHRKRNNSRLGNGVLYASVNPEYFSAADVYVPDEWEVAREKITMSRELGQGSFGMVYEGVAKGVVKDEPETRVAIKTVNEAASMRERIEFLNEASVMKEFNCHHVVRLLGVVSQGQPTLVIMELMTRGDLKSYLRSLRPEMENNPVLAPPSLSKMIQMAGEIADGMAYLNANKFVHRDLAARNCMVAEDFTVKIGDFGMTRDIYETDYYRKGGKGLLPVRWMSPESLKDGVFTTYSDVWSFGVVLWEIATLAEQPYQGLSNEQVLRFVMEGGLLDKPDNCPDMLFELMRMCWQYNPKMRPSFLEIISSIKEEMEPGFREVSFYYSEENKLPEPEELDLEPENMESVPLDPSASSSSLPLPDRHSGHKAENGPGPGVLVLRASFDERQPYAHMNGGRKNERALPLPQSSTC
structure (smiles),measurement,setting,value
COc1ccc(OC)c(-n2c(CBr)nc3c(sc(=S)n3-c3cccc(Cl)c3)c2=O)c1,Activity,HBL1,Active
same,inhibition,[1],< 30%
same,inhibition,[2],< 30%
same,inhibition,Caspase-7 (Homo sapiens),30%
same,Activity,[3],>70%
same,inhibition,TMD8,Active
same,inhibition,[4],< 30%
same,half-life,[5],33.5 min
same,Activity,[6],Toxic
same,Activity,[7],Toxic
same,inhibition,[8],< 30%
